This note sets out measurements from PubChem BioAssay (NCI).

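Five compound concentrations were applied to cells in 96-well plates for 48 hours; endpoints were derived by simple linear interpolation of the resulting dose-response curve. The concentration for full growth arrest is given as TGI.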

Among the test systems are OVCAR-4 ovarian; CAKI-1 renal; DU-145 prostate; A498 renal; NCI-H226 lung; SF-295 CNS; HL-60(TB) leukemia; NCI/ADR-RES ovarian; TK-10 renal; BT-549 breast; CCRF-CEM leukemia; A549 NSCLC; NCI-H460 lung; SK-MEL-5 melanoma; SNB-19 CNS; T-47D breast; KM12 colon; HCC-2998 colon; SK-MEL-28 melanoma.
Common to all, as to assay: DTP human tumour cell line panel, 48 h

A word on the TGI: it is the concentration at which net growth stops. High values mean less potent growth arrest, low ones more potent growth arrest.

Turning to `CCS(=O)(=O)CCn1cnc2c1c(=O)n(C)c(=O)n2C`, the TGI with OVCAR-4 ovarian, with CAKI-1 renal, with DU-145 prostate, with A498 renal, with NCI-H226 lung and in the experiment with SF-295 CNS was above 100 µM in each case. Moreover, the TGI in the experiment on HL-60(TB) leukemia, in the experiment with NCI/ADR-RES ovarian, in the experiment on TK-10 renal, in the experiment on BT-549 breast, in the experiment on CCRF-CEM leukemia and in the experiment with A549 NSCLC was above 100 µM each time. Further, the TGI with NCI-H460 lung, in the experiment with SK-MEL-5 melanoma, in the experiment with SNB-19 CNS, with T-47D breast, in the experiment on KM12 colon and with HCC-2998 colon was above 100 µM each time. The same compound came in with a TGI in the experiment with SK-MEL-28 melanoma above 100 µM.

Regarding `COc1cc2c(cc1O)[C@@H]1Cc3c(cc(OC)c(OC)c3Oc3cc4c(cc3OC)CCN(C)[C@@H]4Cc3ccc(O)cc3)[C@H](C2)N1C`, the TGI in the experiment with OVCAR-4 ovarian was above 100 µM; with CAKI-1 renal, above 100 µM; in the experiment with DU-145 prostate it was above 100 µM; in the experiment with A498 renal, 80.4 µM; in the experiment on NCI-H226 lung, above 100 µM; in the experiment on SF-295 CNS, above 100 µM. The TGI in the experiment with HL-60(TB) leukemia is 36.6 µM; with NCI/ADR-RES ovarian it was above 100 µM; in the experiment with TK-10 renal, above 100 µM; in the experiment on BT-549 breast it was 96.9 µM; in the experiment with CCRF-CEM leukemia, above 72.1 µM; in the experiment with A549 NSCLC it was above 100 µM. In addition, the total growth inhibition concentration (TGI) in the experiment with NCI-H460 lung is above 100 µM; with SK-MEL-5 melanoma it was 30.1 µM; in the experiment with SNB-19 CNS it was above 100 µM; in the experiment with T-47D breast, above 100 µM; in the experiment on KM12 colon it was above 100 µM; in the experiment with HCC-2998 colon, above 72 µM. The same compound came in with a TGI in the experiment on SK-MEL-28 melanoma of 34.9 µM.

Regarding `S=c1sc2nc(Cl)nc(Cl)c2s1`, the TGI was 30.6 µM in the experiment on OVCAR-4 ovarian; 17.8 µM with CAKI-1 renal; 30.9 µM in the experiment with DU-145 prostate; 32 µM in the experiment with A498 renal; 32.7 µM in the experiment on NCI-H226 lung; 31.7 µM with SF-295 CNS. In addition, the TGI was 8.78 µM with HL-60(TB) leukemia; 38.2 µM with NCI/ADR-RES ovarian; 26.5 µM with TK-10 renal; 24 µM in the experiment with BT-549 breast; above 46.6 µM in the experiment with CCRF-CEM leukemia; 42.4 µM in the experiment with A549 NSCLC. Moreover, the TGI in the experiment with NCI-H460 lung stood at 30.8 µM; in the experiment on SK-MEL-5 melanoma, 21.6 µM; with SNB-19 CNS, 34.8 µM; in the experiment with T-47D breast it was 31.9 µM; with KM12 colon it was 20.8 µM; with HCC-2998 colon, 31.6 µM. In the experiment on SK-MEL-28 melanoma, the TGI amounted to 30.4 µM.

`NNc1[nH]c(=S)[nH]c1C(N)=O`: the TGI in the experiment with OVCAR-4 ovarian, in the experiment on DU-145 prostate, with A498 renal, in the experiment on NCI-H226 lung, in the experiment with SF-295 CNS and in the experiment with HL-60(TB) leukemia was above 100 µM each time. The TGI in the experiment with NCI/ADR-RES ovarian, in the experiment with TK-10 renal, in the experiment with BT-549 breast, in the experiment on CCRF-CEM leukemia, in the experiment on A549 NSCLC and in the experiment with NCI-H460 lung was above 100 µM in each case. The TGI in the experiment on SK-MEL-5 melanoma, in the experiment on T-47D breast, in the experiment with KM12 colon, with HCC-2998 colon and in the experiment with SK-MEL-28 melanoma was above 100 µM throughout.

Regarding `COc1ccc([C@@]23OC[C@@H]4[C@@H](OC[C@@H]42)c2cc(OC)c(OC)cc23)cc1OC`, the TGI in the experiment on OVCAR-4 ovarian, in the experiment on CAKI-1 renal, with DU-145 prostate, in the experiment with A498 renal, with NCI-H226 lung and with SF-295 CNS was above 100 µM throughout. Further, the TGI in the experiment with HL-60(TB) leukemia, with NCI/ADR-RES ovarian, in the experiment with TK-10 renal, in the experiment on BT-549 breast, in the experiment with A549 NSCLC and in the experiment on NCI-H460 lung was above 100 µM throughout. The TGI in the experiment on SK-MEL-5 melanoma, with SNB-19 CNS, in the experiment on T-47D breast, in the experiment with KM12 colon, in the experiment with HCC-2998 colon and with SK-MEL-28 melanoma was above 100 µM throughout.

Consider `NC(=Nc1ccc(O)cc1)S(=O)O`, for which the TGI in the experiment on OVCAR-4 ovarian, in the experiment on CAKI-1 renal, in the experiment on DU-145 prostate, in the experiment with A498 renal, with NCI-H226 lung and in the experiment with SF-295 CNS was above 100 µM in each case. The TGI with HL-60(TB) leukemia, with NCI/ADR-RES ovarian, with TK-10 renal, with BT-549 breast, in the experiment on CCRF-CEM leukemia and in the experiment on A549 NSCLC was above 100 µM throughout. Further, the concentration for total growth inhibition (TGI) in the experiment with SK-MEL-5 melanoma, in the experiment on SNB-19 CNS, in the experiment on T-47D breast, with KM12 colon, in the experiment with HCC-2998 colon and in the experiment with SK-MEL-28 melanoma was above 100 µM throughout.

As for `O=C(NC(Nc1ccc(F)c(Cl)c1)(C(F)(F)F)C(F)(F)F)OCc1ccccc1`, the TGI in the experiment on CAKI-1 renal was above 100 µM; in the experiment on DU-145 prostate it was above 100 µM; in the experiment on A498 renal, above 100 µM; with NCI-H226 lung, above 100 µM; with SF-295 CNS it was 91.7 µM; in the experiment with HL-60(TB) leukemia, 40.3 µM. For the same compound, the TGI in the experiment with NCI/ADR-RES ovarian was above 100 µM; with TK-10 renal it was above 100 µM; in the experiment on BT-549 breast, 33.6 µM; with CCRF-CEM leukemia, above 100 µM; in the experiment on A549 NSCLC it was above 100 µM; in the experiment with NCI-H460 lung, above 100 µM. Moreover, the TGI in the experiment with SK-MEL-5 melanoma is above 100 µM; with SNB-19 CNS, 51 µM; in the experiment on T-47D breast, above 100 µM; with KM12 colon, above 100 µM; with HCC-2998 colon it was 64.8 µM; with SK-MEL-28 melanoma, above 100 µM.

On to `NC(N)=NCCCC(NC(=O)OCCCCCCn1ccc(N)nc1=O)C(=O)O` (configuration not stated), for which the TGI is above 100 µM in the experiment with OVCAR-4 ovarian; above 100 µM with CAKI-1 renal; above 100 µM in the experiment with DU-145 prostate; above 100 µM with A498 renal; 33.6 µM in the experiment with NCI-H226 lung; above 100 µM in the experiment on SF-295 CNS. For the same compound, the TGI with HL-60(TB) leukemia, with NCI/ADR-RES ovarian, in the experiment with TK-10 renal, with BT-549 breast, with CCRF-CEM leukemia and with A549 NSCLC was above 100 µM in each case. The TGI in the experiment with NCI-H460 lung, in the experiment on SNB-19 CNS, in the experiment with T-47D breast, in the experiment on KM12 colon, with HCC-2998 colon and in the experiment with SK-MEL-28 melanoma was above 100 µM in each case.

For `Cc1c(C)c2c(c(N)c1C#N)C(=O)N(CCN1CCNCC1)C2=O`, the TGI with OVCAR-4 ovarian is above 100 µM; with CAKI-1 renal, above 100 µM; with DU-145 prostate, above 100 µM; in the experiment with A498 renal, 72.3 µM; with NCI-H226 lung, above 100 µM; with SF-295 CNS it was above 100 µM. The TGI in the experiment on HL-60(TB) leukemia, in the experiment on NCI/ADR-RES ovarian, in the experiment with TK-10 renal, in the experiment with BT-549 breast, in the experiment with CCRF-CEM leukemia and with A549 NSCLC was above 100 µM throughout. In addition, the TGI in the experiment with NCI-H460 lung, with SNB-19 CNS, in the experiment with T-47D breast, with KM12 colon, in the experiment with HCC-2998 colon and in the experiment on SK-MEL-28 melanoma was above 100 µM each time.

As for `Cc1ccc(/C=C/C(=O)c2cc(CN(C)C)c(O)c(CN(C)C)c2)cc1`, the TGI was 50.3 µM with CAKI-1 renal; above 100 µM in the experiment with DU-145 prostate; 95.5 µM in the experiment with A498 renal; 59.5 µM with NCI-H226 lung; 27.7 µM in the experiment on SF-295 CNS; 38.5 µM in the experiment on HL-60(TB) leukemia. For the same compound, the TGI with NCI/ADR-RES ovarian is 79.1 µM; in the experiment on TK-10 renal, above 100 µM; with BT-549 breast it was 35.4 µM; in the experiment on CCRF-CEM leukemia it was above 100 µM; in the experiment on A549 NSCLC, 58.5 µM; in the experiment on NCI-H460 lung it was 26.1 µM. In addition, the TGI was 30.6 µM in the experiment on SK-MEL-5 melanoma; above 100 µM in the experiment on T-47D breast; 25.2 µM in the experiment with KM12 colon; 46.2 µM in the experiment with HCC-2998 colon; 33.6 µM with SK-MEL-28 melanoma.

Consider `CC1OC(OC2C(O)COC(OC3C(C)OC(OC4C(OC(=O)[C@]56CCC(C)(C)C[C@@H]5C5=CCC7[C@@]8(C)C[C@H](O)[C@H](OC9OC(CO)C(O)C(OC%10OC(CO)C(O)C(O)C%10O)C9O)[C@@](C)(CO)[C@@H]8CC[C@@]7(C)[C@]5(C)CC6)OCC(O)C4O)C(O)C3O)C2O)C(O)C(O)C1O` (some centres not stated), for which the TGI with OVCAR-4 ovarian was 34.4 µM; with CAKI-1 renal, 19.1 µM; with DU-145 prostate it was 29 µM; with A498 renal, 26 µM; with NCI-H226 lung, 42.9 µM; with SF-295 CNS, 28.4 µM. The TGI in the experiment on NCI/ADR-RES ovarian turned out to be 31.9 µM; in the experiment on TK-10 renal it was 34.2 µM; in the experiment with BT-549 breast, 40.7 µM; in the experiment on CCRF-CEM leukemia, 32.6 µM; in the experiment on A549 NSCLC it was 28.6 µM; in the experiment with NCI-H460 lung it was 40.2 µM. For the same compound, the TGI in the experiment with SK-MEL-5 melanoma came out at 30.3 µM; with SNB-19 CNS, 30.4 µM; in the experiment with T-47D breast it was 35.5 µM; with KM12 colon, 55.2 µM; with HCC-2998 colon, 32.9 µM; in the experiment with SK-MEL-28 melanoma, 22.9 µM.

For the compound `CCOC(=O)c1cnc(-n2[nH]c3c(c2=O)CCCC3)[nH]c1=O`, the TGI in the experiment with OVCAR-4 ovarian, in the experiment with CAKI-1 renal, with DU-145 prostate, with A498 renal, in the experiment on NCI-H226 lung and in the experiment with SF-295 CNS was above 100 µM each time. The TGI with HL-60(TB) leukemia, with NCI/ADR-RES ovarian, with TK-10 renal, in the experiment on BT-549 breast, with CCRF-CEM leukemia and with A549 NSCLC was above 100 µM in each case. Also, the TGI in the experiment on NCI-H460 lung, with SK-MEL-5 melanoma, in the experiment on SNB-19 CNS, in the experiment with T-47D breast, with KM12 colon and in the experiment on SK-MEL-28 melanoma was above 100 µM each time.
